Laboratory results published in US20230364057A1, “BACTERIAL DNA GYRASE INHIBITORS AND METHODS OF USE THEREOF” (THE FLORIDA INTERNATIONAL UNIVERSITY BOARD OF TRUSTEES, priority 2022, published 2023).
Converted amounts (≈) assume the structure as drawn. Like-named read-outs stand apart in the source and are kept apart here.

Columns and labels:
MRSA = assay: Minimum inhibitory concentration, broth microdilution; conditions: for MIC: Staphylococcus aureus, MRSA, read-out: Minimum Inhibitory Concentration S.aureus MRSA
E. coli DNA gyrase [1] = target: T1, E. coli DNA gyrase (Escherichia coli (strain K12), UniProt P0AES4+P0AES6); assay: Agarose gel-based DNA gyrase inhibition assay; assay type: biochemical
Procedure: 100 ng of DNA gyrase was used to supercoil the rx pAB1 in the presence of different concentrations of a gyrase inhibitor. […] Samples were analyzed by electrophoresis in 1% w/v agarose gels followed by ethidium bromide staining and photographed under UV light.

B. subtilis (ATCC 6633) = assay: Minimum inhibitory concentration, broth microdilution; conditions: Bacillus subtilis, ATCC6633, read-out: Minimum Inhibitory Concentration B.subtilis
Procedure: (§1) Antibacterial minimum inhibitory concentrations (MICs) were obtained from three independent experiments using broth microdilution methods in 96-well plates according to Clinical and Laboratory Standards Institute guidelines. Cells were culture from singles colonies in MHIIB medium for 24 h at 37° C. in agitation (200 RPM). The cultures were then diluted using the same media to reach an OD600 of 0.1. Then, 50 µL of the diluted cultures were added to the plates holding 50 µL of serially diluted compounds in MHIIB. The plates were incubated at 37° C. for 20 h. The starting inoculum was fixated to 10^5 colony-forming units per ml.

E. coli DNA gyrase [2] = target: T1, E. coli DNA gyrase; assay: biochemical; assay type: biochemical
S. aureus (ATCC 14775) = assay: Minimum inhibitory concentration, broth microdilution; conditions: for MIC: Staphylococcus aureus
in vitro [3] = conditions: human
in vitro [4] = conditions: mouse
Mtb = Mtb whole cell assay (% inhibition, MIC); assay type: cell-based, Mycobacterium tuberculosis; conditions: Mycobacterium tuberculosis; Table 5 (same values in Table 6 at 20 µM)
Mtb DNA gyrase = Mtb DNA gyrase (Mycobacterium tuberculosis (strain ATCC 25618 / H37Rv), UniProt P9WG45+P9WG47); assay: Mtb DNA gyrase inhibition assay (gel-based); assay type: biochemical; conditions: Table 5, Mtb gyrase; read-out: IC50 (µM) Mtb
Procedure: The IC50 against E. coli (A) and Mtb (C) gyrase were determined using the gel-based gyrase inhibition assays. The gyrase mediated DNA cleavage assays (B and D) were performed using pBR322. (A) 229 inhibits E. coli gyrase. Lane 1, rx pAB1. […] Lane 1, rx pAB1. […] 100 µM of CPDs were used. Symbols rx, nk, In, and sc represent relaxed, nicked, linear, and supercoiled DNA, respectively.
Agarose gel-based DNA gyrase inhibition assays were performed in 30 µL of 1 ×gyrase buffer (35 mM Tris-HCl, 24 mM KCl, 4 mM MgCl2, 2 mM DTT, 1.75 mM ATP, 0.1 mg/mL BSA, 6.5% glycerol, pH7.5) containing 400 ng of rx pAB1 at 37° C. 100 ng of DNA gyrase was used to supercoil the rx pAB1 in the presence of different concentrations of a gyrase inhibitor. After 15 minutes of incubation with the inhibitor at 37° C., all reactions were stopped with 1 µL of stop solution (3% SDS and 250 mM EDTA). Samples were analyzed by electrophoresis in 1% w/v agarose gels followed by ethidium bromide staining and photographed under UV light.

E. coli (ATCC 25922) = assay: Minimum inhibitory concentration, broth microdilution; conditions: Escherichia coli, ATCC25922, read-out: Minimum Inhibitory Concentration E. coli, Tables 3a-3c
Procedure: as §1

[5] = ATCC14775, read-out: Minimum Inhibitory Concentration S.aureus
[6] = IC50 (50-200 µM), bin of Table 2

| Structure (SMILES) | MIC (MRSA) [µM] | inhibition of E. coli DNA gyrase activities (E. coli DNA gyrase [1]; 200 µM of compounds) | MIC (B. subtilis (ATCC 6633)) [µM] | MIC (S. aureus (ATCC 14775); [5]) [µM] | inhibition of E. coli DNA gyrase activities (E. coli DNA gyrase [1]; 50 µM of compounds) | IC50 (in vitro [3]) [µM] | IC50 (in vitro [4]) [µM] | IC50 (E. coli DNA gyrase [2]; [6]) [µM] | other results |
| --- | --- | --- | --- | --- | --- | --- | --- | --- | --- |
| Cc1ccccc1NC1=C/C(=N/S(=O)(=O)c2ccc(C(=O)O)cc2)c2ccccc2C1=O [Compound 4] | 50 (≈ 22.3 µg/mL) | completely inhibited | 100 (≈ 44.6 µg/mL) | 50 (≈ 22.3 µg/mL) |  |  |  |  | IC50 (E. coli DNA gyrase [2]; IC50 ([…]-50 µM), bin of Table 2): 25 to 50 µM |
| Cc1cc(C)c2c(c1)C(=NNc1ccc(C(=O)O)cc1)C(O)=N2 [Compound 9, 4-[2-(5,7-Dimethyl-2-oxoindol-3-yl)hydrazinyl]benzoic acid] | 3.12 (≈ 0.967 µg/mL) | completely inhibited | 25 (≈ 7.73 µg/mL) | 3.12 (≈ 0.967 µg/mL) | completely inhibited |  |  |  | growth of MRSA (MRSA): strongly inhibited the growth; inhibition of E. coli DNA gyrase activities (E. coli DNA gyrase [2]): potent gyrase inhibitor; growth of S. aureus (S. aureus (ATCC 14775)): strongly inhibited the growth |
| CSc1nc(SCC(=O)O)c2sc3nc(-c4ccccc4)c4c(c3c2n1)CCC4 [Compound 19] |  | completely inhibited |  |  | completely inhibited | > 200 | > 200 |  |  |
| Cc1c(CCC(=O)O)c(=O)oc2cc3occ(-c4ccc(Cl)cc4)c3cc12 [Compound 25] |  | completely inhibited |  |  | almost completely inhibited |  |  |  | inhibition at 20 µM (Mtb): 0.8%; IC50 (Mtb DNA gyrase): 65 µM; inhibition of E. coli DNA gyrase activities (E. coli DNA gyrase [2]): potent bacterial DNA gyrase inhibitors; IC50 (E. coli DNA gyrase [2]; IC50 (µM) EC, Table 5, E. coli gyrase): 11.5 µM; MIC (S. aureus (ATCC 14775); ATCC14775, read-out: MIC (µM) SA): > 200 µM |
| CC(=O)Nc1ccc(S(=O)(=O)Nc2nc3ccccc3nc2Nc2ccc(C(=O)O)c(O)c2)cc1 [Compound 30] |  |  |  |  |  | > 200 | > 200 |  |  |
| O=C1/C(=C\c2ccc(O)cc2)SC(=S)N1Cc1ccccc1 [Compound 44] | 25 (≈ 8.19 µg/mL) | completely inhibited | 25 (≈ 8.19 µg/mL) | 12.5 (≈ 4.09 µg/mL) |  |  |  | 50 to 200 |  |
| CN1C[C@H](CNC(=O)OCc2ccccc2)C[C@@H]2c3cccc4c3c(cn4C)C[C@H]21 [Compound 45] | 100 (≈ 40.4 µg/mL) | almost completely inhibited | 100 (≈ 40.4 µg/mL) | 100 (≈ 40.4 µg/mL) |  |  |  | 50 to 200 |  |
| O=C(O)c1cccc(-c2ccc(/C=c3/sc4nc5ccccc5n4c3=O)o2)c1 [Compound 47] |  | completely inhibited |  |  | completely inhibited | > 200 | > 200 |  |  |
| CC(=O)Nc1ccc(/C=C2\Sc3ccccc3C2=O)cc1 [Compound 54] |  | almost completely inhibited |  |  |  | > 200 | > 200 | 50 to 200 |  |
| Cc1ccc(-c2csc(NC(=O)c3cccc(C)c3)c2C(=O)O)cc1 [Compound 58] | 100 (≈ 35.1 µg/mL) | completely inhibited | 100 (≈ 35.1 µg/mL) | 100 (≈ 35.1 µg/mL) |  |  |  | 50 to 200 |  |
| Cc1cc(/C=C2\SC(=S)NC2=O)c(C)n1C [Compound 64] |  | completely inhibited |  |  |  | > 200 | > 200 | 50 to 200 |  |
| COc1cc2ccccc2cc1C(=O)NC(=S)Nc1ccc(C(=O)O)cc1 [Compound 72] |  |  |  |  |  |  |  |  | MIC (E. coli (ATCC 25922)): 100 µM (≈ 38 µg/mL) |
| O=C(Nc1cccc(C2=NCCN2)c1)Nc1cccc(C2=NCCN2)c1 [Compound 79] | 200 (≈ 69.7 µg/mL) |  | 100 (≈ 34.8 µg/mL) | 200 (≈ 69.7 µg/mL) |  |  |  | 50 to 200 | MIC (E. coli (ATCC 25922)): 200 µM (≈ 69.7 µg/mL) |
